Measurements taken from US9156809B2, “Carboxy ester ketals, methods of manufacture, and uses thereof” (SEGETIS, INC., priority 2012, dated 2015).

Assays:
[1] = Relative VOC content / volatility by TGA emulating ASTM D2369; conditions: 110° C., nitrogen purge, 15 mg
Procedure: Here, 15 milligrams (mg) of each coalescent solvent was maintained at 110° C. for one hour with a nitrogen purge in a thermogravimetric analyzer (TGA).

[2] = Miscibility of alkyl ketal ester with essential oil; format: physicochemical; conditions: room temperature
From the text: The alkyl ketal ester and the essential oil are blended in a weight ratio of 1:1 at room temperature using gentle agitation. Solubility is visually determined immediately after mixing. Clear solutions are described as “miscible” and solutions that are either cloudy or show evidence of a second phase are labeled as “immiscible.”

[3] = Solubility of personal care or medicinal active agents in ketal; conditions: 50/50 mixture, room temperature
From the text: Certified organic tea tree oil (Melaleuca alternifolia, plant sourced from Australia and extracted by steam distillation) can be purchased from Wyndmere Naturals.
The recommended usage rate is 0.1-1%.
The recommended usage rate is 0.01-0.05%.

[4] = Hydrolytic stability of coalescent solvents at elevated temperature (45° C.); format: physicochemical; conditions: 1.0 g coalescent in 10 g Rhoplex SG-10M; for Initial pH: adjusted to pH 9 with ammonia, 45° C. study; for pH 1 week / pH 2 weeks: stored at 45° C.
Procedure: (§1) Latex formulations were prepared by adding 1.0 gram of each coalescent solvent to 10 grams of an acrylic latex (Rhoplex SG-10M available from Dow Chemical Company) and adjusting the pH of each sample to a pH of 9 using ammonia. A control latex formulation was prepared without adding a coalescent solvent.

[5] = Compatibility between waxes and alkyl ketal esters; format: physicochemical
From the text: Compatibility between various waxes and the alkyl ketal esters are first determined as detailed below. Table 13 below details the fragrant formulations for different candles that contain the fragrant composition.

[6] = Hydrolytic stability of coalescent solvents at room temperature (pH of latex formulation); format: physicochemical; conditions: 1.0 g coalescent in 10 g Rhoplex SG-10M; for Initial pH: adjusted to pH 9 with ammonia, room temperature; for pH 1 week / pH 2 weeks / pH 3 weeks / pH 4 weeks: stored at room temperature
From the text: The pH of latex formulations containing ester-functionalized coalescent solvents was monitored over time to evaluate hydrolytic stability of the coalescent solvents. Not wishing to be bound by theory, ester hydrolysis may occur at a high alkaline pH (for example a pH greater than about 9) during storage of latex compositions. The resulting hydrolysis products lower the pH of the latex composition and could decrease the coalescing efficiency of the coalescing solvent with respect to the initial amount of the coalescing solvent.
as §1

[7] = Model ethanolic sunscreen solutions, miscibility; format: physicochemical; conditions: by itself
Procedure: Three-component mixtures of ketal, ethanol, and avobenzone are prepared by mixing the materials at various proportions at room temperature in a vial and shaking. Avobenzone by itself is immiscible in ethanol at the 5% by weight level. The ketals used are as follows: A: ketal is 2EH-LPK; Example B: ketal is 1N-LPK. Example C: ketal is 355TMH-LPK.
Three-component mixtures of ketal, ethanol, and oxybenzone are prepared by mixing the materials at various proportions at room temperature in a vial and shaking. The ketals used are as follows: A: ketal is 2EH-LPK; Example B: ketal is 1N-LPK. Example C: ketal is 355TMH-LPK. Clear mixtures are considered to be “miscible” on this test, whereas cloudy or phase separated mixtures are considered to be “immiscible.” Oxybenzone by itself is immiscible in ethanol at the 10% by weight level.

[8] = with Basil (Ocimum basilicum) essential oil
[9] = with Bergamot (Citrus bergamia) essential oil
[10] = with Birch sweet (Betula lenta) essential oil
[11] = with Citronella (Cymbopogon nardus) essential oil
[12] = with Coriander seed (Coriandrum sativum) essential oil
[13] = with Geranium (Pelargonium graveolens) essential oil
[14] = with Lavender (Lavandula angustifolium) essential oil
[15] = with Myrrh (Commiphora myrrha) essential oil
[16] = with Orange (Citrus sinensis) essential oil
[17] = with Patchouli (Pogostemon patchouli) essential oil
[18] = with Pine needle (pinus sylvestris) essential oil
[19] = with Vetiver (Vetivera zizanoides) essential oil
[20] = with Ylang ylang (Canaga odorata) essential oil
[21] = Beeswax, 50/50 weight ratio, heated to 80° C., cooled to room temperature
[22] = Carnauba wax, 50/50 weight ratio, heated to 120° C.
[23] = Paraffin wax, 50/50 weight ratio, heated to 80° C., cooled to room temperature
[24] = Paraffin wax, 75/25 weight ratio, heated to 80° C., cooled to room temperature
[25] = Stearic acid, 50/50 weight ratio, heated to 80° C., cooled to room temperature

Compound	Miscibility of 50/50 blend by weight [2, 8]	Miscibility of 50/50 blend by weight [2, 9]	Miscibility of 50/50 blend by weight [2, 10]	Miscibility of 50/50 blend by weight [2, 11]	Miscibility of 50/50 blend by weight [2, 12]	Miscibility of 50/50 blend by weight [2, 13]	Miscibility of 50/50 blend by weight [2, 14]	Miscibility of 50/50 blend by weight [2, 15]	Miscibility of 50/50 blend by weight [2, 16]	Miscibility of 50/50 blend by weight [2, 17]	Miscibility of 50/50 blend by weight [2, 18]	Miscibility of 50/50 blend by weight [2, 19]	Miscibility of 50/50 blend by weight [2, 20]	Miscibility with tea tree oil [3]	Initial pH [4]	pH 1 week [4]	pH 2 weeks [4]	Compatibility with wax upon cooling [5, 21]	Compatibility with wax upon cooling [5, 22]	Compatibility with wax upon cooling [5, 23]	other results
2,2,4-trimethyl-1,3-pentanediol monoisobutyrate [TPM]																					% mass remaining ([1]; 0 min): 100%; % mass remaining ([1]; 5 min): 74%; % mass remaining ([1]; 10 min): 49%; % mass remaining ([1]; 15 min): 26%; % mass remaining ([1]; 20 min): 4%; % mass remaining ([1]; 30 min): 0%; % mass remaining ([1]; 60 min): 0%
CCCCCCCCCOC(=O)CCC1(C)OCC(C)O1 (stereo not drawn) [1N-LPK, 1-nonyl levulinate propylene glycol ketal]	Miscible	Miscible	Miscible	Miscible	Miscible	Miscible	Miscible	Miscible	Miscible	Miscible	Miscible	Miscible	Miscible	miscible	8.92	8.75	8.63	single homogenous wax layer	single homogenous wax layer	single homogenous wax layer	Compatibility with wax upon cooling [5, 24]: single homogenous wax layer; Compatibility with wax upon cooling [5, 25]: single homogenous wax layer
CCCCC(CC)COC(=O)CCC1(C)OCC(C)O1 (stereo not drawn) [2EH-LPK, 2-ethylhexyl levulinate propylene glycol ketal]	Miscible	Miscible	Miscible	Miscible	Miscible	Miscible	Miscible	Miscible	Miscible	Miscible	Miscible	Miscible	Miscible	miscible				single homogenous wax layer	single homogenous wax layer	single homogenous wax layer	Initial pH [6]: 8.97; pH 1 week [6]: 8.99; pH 2 weeks [6]: 8.94; pH 3 weeks [6]: 9.03; pH 4 weeks [6]: 9.00; Compatibility with wax upon cooling [5, 24]: single homogenous wax layer; Compatibility with wax upon cooling [5, 25]: single homogenous wax layer
CC(CCOC(=O)CCC1(C)OCC(C)O1)CC(C)(C)C (stereo not drawn) [355TMH-LPK, 3,5,5-trimethylhexyl levulinate propylene glycol ketal]	Miscible	Miscible	Miscible	Miscible	Miscible	Miscible	Miscible	Miscible	Miscible	Miscible	Miscible	Miscible	Miscible	miscible	8.92	8.78	8.64	single homogenous wax layer	single homogenous wax layer	single homogenous wax layer	Compatibility with wax upon cooling [5, 24]: single homogenous wax layer; Compatibility with wax upon cooling [5, 25]: single homogenous wax layer
COc1ccc(C(=O)CC(=O)c2ccc(C(C)(C)C)cc2)cc1 [Avobenzone, avobenzone]																					Miscibility in ethanol ([7]; 5% by weight level in ethanol): immiscible
CCOC(=O)CCC1(C)OCC(C)O1 (stereo not drawn) [EtLPK, ethyl levulinate propylene glycol ketal]															8.95	8.06	7.53				Initial pH [6]: 9.00; pH 1 week [6]: 8.69; pH 2 weeks [6]: 8.53; pH 3 weeks [6]: 8.41; pH 4 weeks [6]: 8.24
COc1ccc(C(=O)c2ccccc2)c(O)c1 [Oxybenzone, oxybenzone]																					Miscibility in ethanol ([7]; 10% by weight level in ethanol): immiscible
CC(C)OC(=O)CCC1(C)OCC(C)O1 (stereo not drawn) [iPrLPK, isopropyl levulinate propylene glycol ketal]																					Initial pH [6]: 8.93; pH 1 week [6]: 8.79; pH 2 weeks [6]: 8.73; pH 3 weeks [6]: 8.71; pH 4 weeks [6]: 8.64
